Assay [1] is described as follows: Antioxidant activity assessed as decrease in initial DPPH concentration after 30 min by MicroELISA reader analysis. Type of assay: functional.
In assay [2] the test system is L02. The experiment in a line: Hepatoprotective activity in Homo sapiens (human) LO2 cells assessed as reversal of CCl4-induced decrease in GSH-Px activity at 50 mM treated prior to CCl4 addition measured after 24 hr (CCl4 Rvb = 49 +/-3.8%). The format is functional. On the set-up: scale not given: the % may be the effect or the level left.
Assay [3] concerns L02. The experiment in a line: Hepatoprotective activity in Homo sapiens (human) LO2 cells assessed as reversal of CCl4-induced decrease in GSH-Px activity at […] treated prior to CCl4 addition measured after 24 hr (CCl4 Rvb = 49 +/-3.8%). Type of assay: functional. Further details: scale not given: the % may be the effect or the level left.
Assay [4] concerns L02. The experiment in a line: Hepatoprotective activity in Homo sapiens (human) LO2 cells assessed as reversal of CCl4-induced decrease in GSH-Px activity at 10 mM treated prior to CCl4 addition measured after 24 hr (CCl4 Rvb = 49 +/-3.8%). The format is functional. On the set-up: scale not given: the % may be the effect or the level left.
Assay [5] concerns L02. The experiment in a line: Hepatoprotective activity in Homo sapiens (human) LO2 cells assessed as reversal of CCl4-induced decrease in GSH-Px activity at 1 mM treated prior to CCl4 addition measured after 24 hr (CCl4 Rvb = 49 +/-3.8%). The format is functional. Further details: scale not given: the % may be the effect or the level left.
In assay [6] the test system is L02. The experiment in a line: Hepatoprotective activity in Homo sapiens (human) LO2 cells assessed as reversal of CCl4-induced increase in malondialdehyde level at 50 mM treated prior to CCl4 addition measured after 24 hr (CCl4 Rvb = 170 +/-4.3%). The format is functional.
Assay [7] has as its system L02. Briefly: Hepatoprotective activity in Homo sapiens (human) LO2 cells assessed as reversal of CCl4-induced increase in malondialdehyde level at […] treated prior to CCl4 addition measured after 24 hr (CCl4 Rvb = 170 +/-4.3%). Type of assay: functional.
Assay [8] deals with L02. Briefly: Hepatoprotective activity in Homo sapiens (human) LO2 cells assessed as reversal of CCl4-induced increase in malondialdehyde level at 10 mM treated prior to CCl4 addition measured after 24 hr (CCl4 Rvb = 170 +/-4.3%). The format is functional.
Assay [9] concerns L02. The experiment in a line: Hepatoprotective activity in Homo sapiens (human) LO2 cells assessed as reversal of CCl4-induced increase in malondialdehyde level at 1 mM treated prior to CCl4 addition measured after 24 hr (CCl4 Rvb = 170 +/-4.3%). The format is functional.
The test system of assay [10] is L02. Briefly: Hepatoprotective activity in Homo sapiens (human) LO2 cells assessed as reversal of CCl4-induced decrease in superoxide dismutase activity at […] treated prior to CCl4 addition measured after 24 hr by xanthine/xanthine oxidase assay (CCl4 Rvb = 47 +/-4.4%). The format is functional. Further details: scale not given: the % may be the effect or the level left.

Assay [11] relates to L02. The experiment in a line: Hepatoprotective activity in Homo sapiens (human) LO2 cells assessed as reversal of CCl4-induced decrease in superoxide dismutase activity at 50 mM treated prior to CCl4 addition measured after 24 hr by xanthine/xanthine oxidase assay (CCl4 Rvb = 47 +/-4.4%). On the set-up: scale not given: the % may be the effect or the level left. Type of assay: functional.

Assay [12] deals with L02. Briefly: Hepatoprotective activity in Homo sapiens (human) LO2 cells assessed as reversal of CCl4-induced decrease in superoxide dismutase activity at 1 mM treated prior to CCl4 addition measured after 24 hr by xanthine/xanthine oxidase assay (CCl4 Rvb = 47 +/-4.4%). The format is functional. On the set-up: scale not given: the % may be the effect or the level left.
Assay [13] relates to L02. The experiment in a line: Hepatoprotective activity in Homo sapiens (human) LO2 cells assessed as reversal of CCl4-induced decrease in superoxide dismutase activity at 10 mM treated prior to CCl4 addition measured after 24 hr by xanthine/xanthine oxidase assay (CCl4 Rvb = 47 +/-4.4%). Type of assay: functional. On the set-up: scale not given: the % may be the effect or the level left.

Assay [14] concerns L02. Briefly: Hepatoprotective activity in Homo sapiens (human) LO2 cells assessed as protection against CCl4-induced cytotoxicity at […] treated prior to CCl4 addition measured after 24 hr by MTT assay. Type of assay: functional, cell-based.
Assay [15] has as its system L02. Briefly: Hepatoprotective activity in Homo sapiens (human) LO2 cells assessed as protection against CCl4-induced cytotoxicity at 50 to […] treated prior to CCl4 addition measured after 24 hr by MTT assay. Type of assay: functional, cell-based.
Assay [16] relates to L02. Briefly: Hepatoprotective activity in Homo sapiens (human) LO2 cells assessed as protection against CCl4-induced cytotoxicity at 10 to […] treated prior to CCl4 addition measured after 24 hr by MTT assay. The format is functional, cell-based.

Active and inactive are the calls of the source. No cut-off for these calls is given here.

Consider `CCOc1cc(CCO[C@@H]2O[C@H](CO)[C@H](O)[C@H](O)[C@H]2O)ccc1O`, for which the IC50 in [1] was determined as 87.5 µM.
In the case of `COc1cc(CCO[C@@H]2O[C@H](CO)[C@@H](O)[C@H](O)[C@H]2O)cc(OC)c1O`, the IC50 in assay [1] was determined as 61.6 µM.
As for `COc1cc(CCO[C@@H]2O[C@H](CO)[C@@H](O)[C@H](O)[C@H]2O)ccc1O`, the IC50 in assay [1] came out at 59.8 µM.
On to `OC[C@H]1O[C@@H](OCCc2ccc(O)c(Br)c2)[C@H](O)[C@@H](O)[C@@H]1O`, for which, in [1], the IC50 was > 100 µM.
As for `OC[C@H]1O[C@@H](OCCc2cc(O)c(O)c(O)c2)[C@H](O)[C@@H](O)[C@H]1O`, the Activity with L02 [2] is reported as 78%; in the assay on L02 [3] it was 86%; in the assay with L02 [4], 64%; in the assay on L02 [5], 55%; with L02 [6] it was 119%; in the assay with L02 [7] it was 110%. The Activity worked out at 141% with L02 [8]; 164% in the assay on L02 [9]; 89% in the assay on L02 [10]; 76% in the assay with L02 [11]; 54% with L02 [12]; 65% in the assay on L02 [13]. Further, the outcome in the assay on L02 [14], in the assay on L02 [15] and with L02 [16] was Active. Besides, the IC50 in [1] came to 35.9 µM.
As for `OC[C@H]1O[C@@H](OCCc2cc(O)c(O)c(O)c2)[C@H](O)[C@@H](O)[C@@H]1O`, the Activity is listed as 71% with L02 [2]; 80% with L02 [3]; 57% in the assay with L02 [4]; 54% with L02 [5]; 128% in the assay on L02 [6]; 117% in the assay on L02 [7]. Further, the Activity in the assay with L02 [8] is recorded as 151%; in the assay with L02 [9], 167%; in the assay with L02 [10], 83%; with L02 [11] it was 70%; with L02 [12] it was 50%; in the assay with L02 [13], 55%. Moreover, the outcome with L02 [14], in the assay on L02 [15] and in the assay on L02 [16] was Active. In [1], the IC50 was determined as 38.1 µM.
In the case of `OC[C@H]1O[C@@H](OCCc2ccc(O)cc2)[C@H](O)[C@@H](O)[C@@H]1O` [SALIDROSIDE], the Activity in the assay with L02 [2] is listed as 56%; in the assay on L02 [3], 61%; in the assay on L02 [4], 53%; with L02 [5] it was 51%; in the assay with L02 [6] it was 162%; with L02 [7], 157%. The Activity with L02 [8] is reported as 165%; in the assay on L02 [9], 168%; in the assay on L02 [10], 61%; in the assay on L02 [11], 56%; with L02 [12] it was 49%; in the assay with L02 [13], 52%. Also, the result in the assay on L02 [14], with L02 [15] and in the assay with L02 [16] was Active.
With `O=C1O[C@H]([C@@H](O)CO)C(O)=C1O` [ASCORBIC ACID], the IC50 in assay [1] is 54.6 µM.
In the case of `COc1cc(CCO[C@@H]2O[C@H](CO)[C@H](O)[C@H](O)[C@H]2O)ccc1O`, in assay [1], the IC50 is 40.8 µM.
As to `COc1cc(CCO[C@@H]2O[C@H](CO)[C@H](O)[C@H](O)[C@H]2O)cc(OC)c1O`, the IC50 in assay [1] is 70.1 µM.
With `OC[C@H]1O[C@@H](OCCc2cc(Br)c(O)c(Br)c2)[C@H](O)[C@@H](O)[C@@H]1O`, the IC50 in assay [1] was > 100 µM.
On to `OC[C@H]1O[C@@H](OCCc2ccc(O)c(Br)c2)[C@H](O)[C@@H](O)[C@H]1O`, for which, in assay [1], the IC50 is > 100 µM.
Consider `OC[C@H]1O[C@@H](OCCc2cc(Br)c(O)c(Br)c2)[C@H](O)[C@@H](O)[C@H]1O`, for which, in assay [1], the IC50 is > 100 µM.
In the case of `CCOc1cc(CCO[C@@H]2O[C@H](CO)[C@@H](O)[C@H](O)[C@H]2O)ccc1O`, the concentration for half-maximal inhibition (IC50) in [1] is 66.8 µM.

For the origin of these results see ChEMBL document CHEMBL3044980, “Free radical scavenging and hepatoprotective effects of salidroside analogs on CCl4-induced cytotoxicity in LO2 cells” (Med Chem Res, 2013).
